One data set is described as follows: Metabolic stability. The following applies: stated in contrast to Chloramphenicol. Type of data set: in vitro ADME.
A short description of data set [1]: Water solubility (observation on the isolated product). Type of data set: physicochemical. As to conditions: in Wasser, result in words.
Data set [2] can be described thus: Hydrolytic cleavage of the ester at physiological pH. It is filed as physicochemical. The following applies: bei physiologischem pH.
The subject of the next data set is Escherichia coli. The data set is described as follows: In vivo activity (mouse), infection with Escherichia coli. As to conditions: po; Maus, p.o., gegen Escherichia coli; hydrochloride form; read-out: In-vivo-Aktivität (Maus) (CD50 p.o.).
In a further data set the test system is Salmonella typhimurium. The data set is described as follows: In vivo activity (mouse), infection with Salmonella typhimurium. The following applies: Salmonella enterica, po; Maus, p.o., gegen Salmonella typhimurium; hydrochloride form; read-out: In-vivo-Aktivität (Maus) (CD50 p.o.).
The subject of another data set is Streptococcos pyogenes. The data set can be described thus: In vivo activity (mouse), infection with Streptococcos pyogenes. The following applies: po, Maus, p.o., gegen Streptococcos pyogenes, hydrochloride form, read-out: In-vivo-Aktivität (Maus) (CD50 p.o.).
The test system of data set [3] is Pseudomonas aeruginosa BA. The data set is described as follows: In vivo activity (mouse), infection with Pseudomonas aeruginosa BA. The following applies: po; Maus, p.o., gegen Pseudomonas aeruginosa BA; hydrochloride form; read-out: In-vivo-Aktivität (Maus) (CD50 p.o.).
Another data set in a line: Acute toxicity (mouse). As to conditions: in vivo, read-out: Akute Toxizität (Maus): LD50.

Each structure is given as a SMILES string. Where a name gives a salt, the structure may show the parent alone. Read-outs that look alike come from different tables or passages of the source.

For the compound `O=C(N[C@H](CO)[C@H](O)c1ccc([N+](=O)[O-])cc1)C(F)F` [Fluoramphenicol, D-threo-1-(p-Nitrophenyl)-2-difluor-Mez/3.5.1979 acetamino-l,3-propandiol], the “Metabolische Beständigkeit” value in “Metabolic stability” is on record as “metabolisch beständig”.

As to `C[C@H](N)C(=O)OC[C@@H](NC(=O)C(F)F)[C@H](O)c1ccc([N+](=O)[O-])cc1` [Fluoramphenicol-3-(L-alaninester)-hydrochlorid], the Wasserlöslichkeit result in data set [1] is given as “sehr gut wasserlösliches”.

As to `NCC(=O)OC[C@@H](NC(=O)C(F)F)[C@H](O)c1ccc([N+](=O)[O-])cc1` [Fluoramphenicol-3-glycinester, Fluoramphenicol-3-(glycinester)-hydrochlorid], the “Hydrolytische Spaltung” value in data set [2] is on record as “sofort hydrolytisch zu wirksamem Fluoramphenicol gespalten”. Besides, the ED50 is 23 mg/kg in the data set on Escherichia coli, 12 mg/kg in the data set with Salmonella typhimurium, 27 mg/kg in the data set on Streptococcos pyogenes and 47 mg/kg in data set [3]. For the same compound, the LD50 (usually the dose at which mortality reaches 50%) in the data set “Acute toxicity (mouse)” (po) is above 5000 mg/kg; in “Acute toxicity (mouse)” (sc), 2000 to 4000 mg/kg.

Turning to `O=C(O)CCC(=O)OC[C@@H](NC(=O)C(F)F)[C@H](O)c1ccc([N+](=O)[O-])cc1` [Fluoramphenicol-3-monosuccinat-natriumsalz], the Wasserlöslichkeit entry in data set [1] was “sehr gut wasserlösliches”.

Regarding `CCCCCCCCCCCCCCCC(=O)OC[C@@H](NC(=O)C(F)F)[C@H](O)c1ccc([N+](=O)[O-])cc1` [Fluoramphenicol-3-palmitat], in data set [1], the Wasserlöslichkeit result was “in Wasser praktisch unlösliche”.
